As a reminder, the IC50 is the concentration that inhibits the measured activity by half.

Data on six compounds can be found in patent EP2289528A1, “Novel nutraceutical compositions containing black pepper or its constituents improving mental performance” (DSM IP Assets B.V., priority 2009, dated 2011).

Read-outs that look alike come from different tables or passages of the source.

The subject of one test is pMAPK. Description: Hippocampal slice cultures, immunohistochemistry of synaptic marker pMAPK. Also: key: ++++ shows a qualitative maximal activation; -- shows a reduced activation; ++ signifies a half-maximum activation; ± demonstrated no change in immunoreactivity. Type of test: cell-based, Wistar rats. The settings on record: relative activation vs sister cultures treated with buffer; 15 min treatment after 48 h in culture. How it is done:
(§1) Seven-day-old Wistar rats were decapitated using a guillotine. […] Transversal hippocampal slices (400 µm) were prepared using a vibrating blade microtome (VT1200S; Leica Microsystems (Schweiz) AG, Heerbrugg, Switzerland) in the same buffer. Hippocampal slices were individually placed on a membrane insert (Millicell Culture Plate Inserts, 0.4 µm) and cultivated at 35 °C, 5% CO2, 95% humidity in a medium containing a 1:1 mixture of BME and MEM (both from Invitrogen) containing 25% heat-inactivated horse serum, 1x GlutaMAX, 1x Penicillin/Streptomycin, 0.6% glucose and 1mM Kynurenic acid (Stoppini, Buchs and Muller (1991), J. Neurosci. Methods, 37(2), 173-82). After 48 h in culture, synaptic NMDA receptors were activated by addition of black pepper extract or its constituents for 15 min in 140 mM NaCl, 5 mM KCl, 1.3 mM CaCl2, 25 mM HEPES (pH 7.3), 33 mM D-glucose and 0.02 mM bicuculline methiodide. […] After the treatments, sections were washed and fixed for immunohistochemistry. Markers of enhanced synaptic activity, normally associated with long-term potentiation, representing an ex vivo model of learning and memory were quantitated (see Table 2, below). Table 2. […] The activation of any of these markers (or a combination thereof) is observed in classical LTP experiments. TABLE 2 […]

In a further test the test system is pCREB. The experiment in a line: Hippocampal slice cultures, immunohistochemistry of synaptic marker pCREB. Also: key: ++++ shows a qualitative maximal activation; -- shows a reduced activation; ++ signifies a half-maximum activation; ± demonstrated no change in immunoreactivity. The test is classed as cell-based, Wistar rats. The settings on record: relative activation vs sister cultures treated with buffer; 15 min treatment after 48 h in culture. How it is done: as §1
In test [1] the target is T1, human glycine transporter 1b cDNA (GlyT1) (Homo sapiens, UniProt P48067).
T1 construct: expressed in transfected cells
T1 sequence (P48067 1-652 isoform P48067-3): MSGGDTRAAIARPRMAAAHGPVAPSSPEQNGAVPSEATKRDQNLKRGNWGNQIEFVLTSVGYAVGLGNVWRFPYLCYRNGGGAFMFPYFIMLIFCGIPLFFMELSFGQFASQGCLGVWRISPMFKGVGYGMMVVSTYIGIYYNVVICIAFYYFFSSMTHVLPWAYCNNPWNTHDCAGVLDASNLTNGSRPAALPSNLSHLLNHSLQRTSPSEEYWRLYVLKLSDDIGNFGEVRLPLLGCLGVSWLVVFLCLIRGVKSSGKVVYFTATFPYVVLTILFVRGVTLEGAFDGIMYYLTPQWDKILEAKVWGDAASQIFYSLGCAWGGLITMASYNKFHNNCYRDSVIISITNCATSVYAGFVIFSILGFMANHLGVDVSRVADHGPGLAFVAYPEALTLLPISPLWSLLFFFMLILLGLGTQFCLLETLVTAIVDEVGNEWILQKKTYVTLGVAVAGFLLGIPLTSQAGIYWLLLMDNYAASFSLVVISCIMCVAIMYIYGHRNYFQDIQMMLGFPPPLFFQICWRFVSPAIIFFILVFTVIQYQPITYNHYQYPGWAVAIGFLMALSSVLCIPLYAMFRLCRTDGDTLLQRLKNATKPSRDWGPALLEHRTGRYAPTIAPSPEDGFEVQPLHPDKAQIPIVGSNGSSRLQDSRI
Description: Inhibition of glycine transporter 1 in a cellular assay ([3H] glycine uptake into CHO cells). Type of test: cell-based. As for the experimental part: Cells were harvested by trypsinisation one day prior to the assay and were seeded in the above mentioned medium. Immediately prior to the assay, the medium was replaced by uptake buffer containing 150 mM NaCl, 1 mM CaCl2, 2.5 mM KCl, 2.5 mM MgCl2, 10 mM Glucose and 10 mM N-2-hydroxyethylpiperazine-N'-2-ethanesulfonic acid ("Hepes" buffer). […] Louis, USA) were used as known inhibitors of GlyT1. […] Data is shown as mean ± s.e.m., where the IC50 is stated as µM for pure compounds and as µg/mLfor extracts.

The test system of a further test is GluR1. Description: Hippocampal slice cultures, immunohistochemistry of synaptic marker GluR1. The test is classed as cell-based, Wistar rats. The settings on record: relative activation vs sister cultures treated with buffer; 15 min treatment after 48 h in culture. How it is done:
Seven-day-old Wistar rats were decapitated using a guillotine. […] Transversal hippocampal slices (400 µm) were prepared using a vibrating blade microtome (VT1200S; Leica Microsystems (Schweiz) AG, Heerbrugg, Switzerland) in the same buffer. Hippocampal slices were individually placed on a membrane insert (Millicell Culture Plate Inserts, 0.4 µm) and cultivated at 35 °C, 5% CO2, 95% humidity in a medium containing a 1:1 mixture of BME and MEM (both from Invitrogen) containing 25% heat-inactivated horse serum, 1x GlutaMAX, 1x Penicillin/Streptomycin, 0.6% glucose and 1mM Kynurenic acid (Stoppini, Buchs and Muller (1991), J. Neurosci. Methods, 37(2), 173-82). After 48 h in culture, synaptic NMDA receptors were activated by addition of black pepper extract or its constituents for 15 min in 140 mM NaCl, 5 mM KCl, 1.3 mM CaCl2, 25 mM HEPES (pH 7.3), 33 mM D-glucose and 0.02 mM bicuculline methiodide. […] After the treatments, sections were washed and fixed for immunohistochemistry. Markers of enhanced synaptic activity, normally associated with long-term potentiation, representing an ex vivo model of learning and memory were quantitated (see Table 2, below). Table 2. […] The activation of any of these markers (or a combination thereof) is observed in classical LTP experiments.

The mark [2] stands for this setting: pure compounds, CHO cells expressing GlyT1, 60 nM [3H] glycine, 30 minutes at room temperature.

As to `NCC(=O)O` [Glycine, reference compound], the pMAPK entry with pMAPK was “++”. Moreover, the pCREB result in the test with pCREB is listed as “++”.
For `COc1cc(/C=C/C(=O)N2CCC=CC2=O)cc(OC)c1OC` [Piperlongumine], the pMAPK entry in the test on pMAPK is reported as “±”. For the same compound, the “IC50 for tritiated glycine uptake” value in test [1] (setting [2]) was “inactive”. For the same compound, the pCREB result in the test with pCREB is reported as “±”. Besides, the GluR1 in the test with GluR1 is 412-931%.
In the case of `CC(C)CNC(=O)/C=C/C=C/c1ccc2c(c1)OCO2` [Piperlonguminine], the “IC50 for tritiated glycine uptake” value in test [1] (setting [2]) is “inactive”.
Consider `CNCC(=O)O` [Sarcosine, reference compound], for which, in the test on pMAPK, the pMAPK result is on record as “±”. Moreover, in the test on pCREB, the pCREB result is recorded as “±”.
Take `CN(CC[C@@H](Oc1ccc(C(F)(F)F)cc1)c1ccccc1)CC(=O)O` [ORG24598, reference compound]: the IC50 in test [1] (read-out: IC50 for tritiated glycine uptake, pure compounds, CHO cells expressing GlyT1, 60 nM [3H] glycine, 30 minutes at room temperature) was determined as 0.02 µM.
For `O=C(/C=C/C=C/c1ccc2c(c1)OCO2)N1CCCCC1` [Piperine], the pMAPK entry in the test on pMAPK was “±”. The compound further came in with an IC50 in test [1] of 48.7 µM. Further, in the test with pCREB, the pCREB result is listed as “±”. In addition, the GluR1 in the test with GluR1 is listed as 119-1742%.
